From ChEMBL document CHEMBL4507307 (2021)
One block for each compound: values may come before it.

Assays:
[1] = molecular target: 5-hydroxytryptamine receptor 1E (Homo sapiens, UniProt P28566); assay: GPCRScan assay: inhibition of 5-HT1E; parameters: radioligand conc. used [nm] 2.1 – 5.0, parental cells stable HEK
[2] = molecular target: Beta-3 adrenergic receptor (Homo sapiens, UniProt P13945); details: Compound concentration 10.0 uM
Histamine H2 receptor = Histamine H2 receptor (Homo sapiens, UniProt P25021); assay: GPCRScan assay: inhibition of H2; parameters: radioligand conc. used [nm] 0.02 – 0.05, parental cells Stable HEK
[3] = molecular target: Alpha-2B adrenergic receptor (Homo sapiens, UniProt P18089); assay: GPCRScan assay: inhibition of Alpha2B; parameters: radioligand conc. used [nm] 1.5 – 2.0, parental cells HEKT
D(3) dopamine receptor = D(3) dopamine receptor (Homo sapiens, UniProt P35462); assay: GPCRScan assay: inhibition of D3; parameters: radioligand conc. used [nm] 0.5 – 1.8, parental cells HEKT
Rattus norvegicus = species on record: Rattus norvegicus; details: Compound concentration 10.0 uM
[4] = molecular target: Dual specificity tyrosine-phosphorylation-regulated kinase 1A (Homo sapiens, UniProt Q13627); assay: DYRK1A Kinase activity screen
[5] = molecular target: Mitogen-activated protein kinase 8 (Homo sapiens) (UniProt P45983); assay: MAPK8 (JNK1) Kinase activity screen
[6] = molecular target: Hepatocyte growth factor receptor (Homo sapiens) (UniProt P08581); assay: MET (cMet) Kinase activity screen; details: Compound concentration 1.0 uM
[7] = molecular target: RAC-alpha serine/threonine-protein kinase (Homo sapiens) (UniProt P31749); assay: AKT1 (PKB alpha) Kinase activity screen; details: Compound concentration 0.1 uM
[8] = molecular target: Dual specificity protein kinase CLK3 (Homo sapiens) (UniProt P49761); assay: CLK3 Kinase activity screen
[9] = molecular target: Aurora kinase A (Homo sapiens) (UniProt O14965); assay: AURKA (Aurora A) Kinase activity screen
[10] = molecular target: Protein kinase C alpha type (Homo sapiens) (UniProt P17252); assay: PRKCA (PKC alpha) Kinase activity screen
[11] = molecular target: Calcium/calmodulin-dependent protein kinase type 1 (Homo sapiens) (UniProt Q14012); assay: CAMK1 (CaMK1) Kinase activity screen
[12] = molecular target: Fibroblast growth factor receptor 1 (Homo sapiens) (UniProt P11362); assay: FGFR1 Kinase activity screen
[13] = molecular target: Homeodomain-interacting protein kinase 1 (Homo sapiens) (UniProt Q86Z02); assay: HIPK1 (Myak) Kinase activity screen
[14] = molecular target: Dual specificity tyrosine-phosphorylation-regulated kinase 4 (Homo sapiens) (UniProt Q9NR20); assay: DYRK4 Kinase activity screen
[15] = Compound concentration 0.123 uM

Chain of Alpha-2B adrenergic receptor (P18089 whole entry): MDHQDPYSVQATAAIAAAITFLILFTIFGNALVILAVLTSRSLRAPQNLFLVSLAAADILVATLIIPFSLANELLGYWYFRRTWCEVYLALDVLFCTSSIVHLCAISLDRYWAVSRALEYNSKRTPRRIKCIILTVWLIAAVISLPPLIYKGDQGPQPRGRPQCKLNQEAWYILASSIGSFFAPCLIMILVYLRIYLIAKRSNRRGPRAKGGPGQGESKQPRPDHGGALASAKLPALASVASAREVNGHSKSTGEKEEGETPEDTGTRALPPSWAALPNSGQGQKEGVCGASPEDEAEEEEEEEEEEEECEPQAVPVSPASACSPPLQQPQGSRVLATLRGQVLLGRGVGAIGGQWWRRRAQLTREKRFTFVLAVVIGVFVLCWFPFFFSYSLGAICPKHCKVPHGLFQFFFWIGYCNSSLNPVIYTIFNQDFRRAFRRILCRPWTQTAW
Chain of Calcium/calmodulin-dependent protein kinase type 1 (Homo sapiens) (Q14012 whole entry, looked up): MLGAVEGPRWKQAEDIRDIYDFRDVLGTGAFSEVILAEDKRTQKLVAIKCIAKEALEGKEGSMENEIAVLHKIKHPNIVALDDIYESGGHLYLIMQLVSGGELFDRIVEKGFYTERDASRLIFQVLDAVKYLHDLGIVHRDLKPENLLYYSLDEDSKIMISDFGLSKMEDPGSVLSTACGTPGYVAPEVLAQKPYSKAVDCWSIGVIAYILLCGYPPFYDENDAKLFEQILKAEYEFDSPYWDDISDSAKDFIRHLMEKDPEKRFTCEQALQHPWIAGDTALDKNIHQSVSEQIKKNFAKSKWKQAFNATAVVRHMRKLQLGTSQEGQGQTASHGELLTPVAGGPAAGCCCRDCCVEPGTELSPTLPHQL
Chain of Dual specificity tyrosine-phosphorylation-regulated kinase 4 (Homo sapiens) (Q9NR20 whole entry): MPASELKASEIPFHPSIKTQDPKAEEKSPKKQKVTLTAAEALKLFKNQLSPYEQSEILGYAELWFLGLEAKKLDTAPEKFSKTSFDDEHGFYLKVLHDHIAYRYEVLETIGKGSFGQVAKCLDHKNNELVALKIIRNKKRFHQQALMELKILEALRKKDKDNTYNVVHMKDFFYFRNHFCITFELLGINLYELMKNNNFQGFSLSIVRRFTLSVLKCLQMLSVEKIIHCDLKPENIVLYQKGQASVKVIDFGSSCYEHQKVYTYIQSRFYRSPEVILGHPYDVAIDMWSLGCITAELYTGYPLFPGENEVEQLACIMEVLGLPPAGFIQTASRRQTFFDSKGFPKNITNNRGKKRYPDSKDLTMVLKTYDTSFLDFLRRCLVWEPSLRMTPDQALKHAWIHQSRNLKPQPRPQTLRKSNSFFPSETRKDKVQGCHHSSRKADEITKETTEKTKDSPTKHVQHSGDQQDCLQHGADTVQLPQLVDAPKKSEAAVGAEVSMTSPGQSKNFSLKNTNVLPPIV
Chain of Aurora kinase A (Homo sapiens) (O14965 whole entry): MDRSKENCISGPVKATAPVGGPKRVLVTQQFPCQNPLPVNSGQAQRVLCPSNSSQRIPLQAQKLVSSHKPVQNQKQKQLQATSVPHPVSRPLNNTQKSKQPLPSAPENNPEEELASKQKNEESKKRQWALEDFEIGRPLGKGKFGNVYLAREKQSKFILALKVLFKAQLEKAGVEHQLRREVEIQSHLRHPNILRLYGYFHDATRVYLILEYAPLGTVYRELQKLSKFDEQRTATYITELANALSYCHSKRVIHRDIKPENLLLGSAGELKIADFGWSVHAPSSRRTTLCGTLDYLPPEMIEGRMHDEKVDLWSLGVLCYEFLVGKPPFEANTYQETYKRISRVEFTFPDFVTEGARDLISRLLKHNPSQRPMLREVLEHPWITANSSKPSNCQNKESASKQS
Chain of Histamine H2 receptor (P25021 whole entry): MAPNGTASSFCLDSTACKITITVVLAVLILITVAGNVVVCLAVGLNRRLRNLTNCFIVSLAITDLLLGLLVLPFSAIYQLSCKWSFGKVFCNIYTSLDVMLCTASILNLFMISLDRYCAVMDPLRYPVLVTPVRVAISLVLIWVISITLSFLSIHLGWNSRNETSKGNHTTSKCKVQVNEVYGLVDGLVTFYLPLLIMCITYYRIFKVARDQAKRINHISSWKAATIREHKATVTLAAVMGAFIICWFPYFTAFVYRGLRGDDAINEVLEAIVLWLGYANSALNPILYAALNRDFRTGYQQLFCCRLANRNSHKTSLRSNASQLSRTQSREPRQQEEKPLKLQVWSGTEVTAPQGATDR
Chain of 5-hydroxytryptamine receptor 1E (P28566 whole entry): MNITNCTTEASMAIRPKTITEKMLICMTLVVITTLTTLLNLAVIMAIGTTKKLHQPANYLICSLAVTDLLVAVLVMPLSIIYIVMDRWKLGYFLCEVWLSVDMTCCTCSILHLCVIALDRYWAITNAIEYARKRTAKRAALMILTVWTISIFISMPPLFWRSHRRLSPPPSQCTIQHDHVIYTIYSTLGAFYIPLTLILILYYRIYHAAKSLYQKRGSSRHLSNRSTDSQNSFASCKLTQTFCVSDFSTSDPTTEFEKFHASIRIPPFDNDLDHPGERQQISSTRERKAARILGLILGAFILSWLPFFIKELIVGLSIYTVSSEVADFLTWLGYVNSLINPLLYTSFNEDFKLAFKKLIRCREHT
Chain of D(3) dopamine receptor (P35462 whole entry): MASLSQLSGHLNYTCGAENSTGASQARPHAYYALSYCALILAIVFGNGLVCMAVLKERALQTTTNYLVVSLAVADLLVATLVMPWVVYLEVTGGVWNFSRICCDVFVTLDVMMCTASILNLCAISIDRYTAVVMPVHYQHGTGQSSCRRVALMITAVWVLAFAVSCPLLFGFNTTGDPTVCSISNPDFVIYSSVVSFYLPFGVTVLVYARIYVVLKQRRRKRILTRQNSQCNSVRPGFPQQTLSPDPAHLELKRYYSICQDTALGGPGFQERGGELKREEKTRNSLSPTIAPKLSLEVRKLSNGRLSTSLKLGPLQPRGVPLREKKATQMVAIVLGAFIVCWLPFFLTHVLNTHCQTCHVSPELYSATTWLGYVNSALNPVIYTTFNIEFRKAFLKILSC
Chain of Fibroblast growth factor receptor 1 (Homo sapiens) (P11362 22-822 limits assumed): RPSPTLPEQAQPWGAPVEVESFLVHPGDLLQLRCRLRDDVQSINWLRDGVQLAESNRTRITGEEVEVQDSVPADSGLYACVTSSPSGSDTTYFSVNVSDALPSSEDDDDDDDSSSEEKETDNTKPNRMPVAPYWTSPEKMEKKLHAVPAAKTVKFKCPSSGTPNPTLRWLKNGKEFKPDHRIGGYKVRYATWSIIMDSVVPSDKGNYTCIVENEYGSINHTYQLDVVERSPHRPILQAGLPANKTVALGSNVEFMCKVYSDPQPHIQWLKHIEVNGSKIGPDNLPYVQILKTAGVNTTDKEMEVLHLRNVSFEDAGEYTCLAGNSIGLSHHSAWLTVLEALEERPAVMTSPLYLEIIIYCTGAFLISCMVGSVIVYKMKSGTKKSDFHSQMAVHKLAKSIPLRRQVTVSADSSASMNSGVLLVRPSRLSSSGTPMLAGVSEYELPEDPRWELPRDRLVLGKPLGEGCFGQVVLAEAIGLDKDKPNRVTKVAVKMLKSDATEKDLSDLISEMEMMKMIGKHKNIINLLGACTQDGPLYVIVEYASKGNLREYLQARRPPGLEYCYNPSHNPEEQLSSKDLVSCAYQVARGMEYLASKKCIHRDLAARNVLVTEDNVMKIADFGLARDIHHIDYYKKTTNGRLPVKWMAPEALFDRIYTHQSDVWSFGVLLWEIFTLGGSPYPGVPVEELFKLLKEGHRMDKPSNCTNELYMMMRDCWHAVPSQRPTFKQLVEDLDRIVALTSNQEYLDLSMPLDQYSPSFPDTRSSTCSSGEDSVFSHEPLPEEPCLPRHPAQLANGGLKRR
Chain of Dual specificity protein kinase CLK3 (Homo sapiens) (P49761 whole entry, looked up): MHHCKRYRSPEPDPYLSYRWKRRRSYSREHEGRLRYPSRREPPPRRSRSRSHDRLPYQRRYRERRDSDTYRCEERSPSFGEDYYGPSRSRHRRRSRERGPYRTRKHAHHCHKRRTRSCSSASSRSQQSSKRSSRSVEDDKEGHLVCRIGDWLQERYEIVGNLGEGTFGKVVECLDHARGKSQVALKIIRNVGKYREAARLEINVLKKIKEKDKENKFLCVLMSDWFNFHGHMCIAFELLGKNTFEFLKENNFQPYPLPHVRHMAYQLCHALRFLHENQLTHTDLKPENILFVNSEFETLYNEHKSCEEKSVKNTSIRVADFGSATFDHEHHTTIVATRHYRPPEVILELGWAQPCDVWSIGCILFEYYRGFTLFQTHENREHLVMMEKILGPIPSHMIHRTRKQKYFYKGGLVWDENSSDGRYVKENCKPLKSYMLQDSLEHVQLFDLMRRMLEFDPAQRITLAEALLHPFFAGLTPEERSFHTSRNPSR

Ki ([1]; read-out: Ki): 3.56 µM
Ki ([1]; read-out: pKi (converted)): 3.47 µM
inhibition [2]: 78.1%
Ki (Histamine H2 receptor; read-out: Ki): 1.73 µM
Ki (Histamine H2 receptor; read-out: pKi (converted)): 1.62 µM
Ki ([3]; read-out: Ki): 1.65 µM
Ki ([3]; read-out: pKi (converted)): 1.62 µM
Ki (D(3) dopamine receptor; read-out: Ki): 2.25 µM
Ki (D(3) dopamine receptor; read-out: pKi (converted)): 1.91 µM
inhibition (Rattus norvegicus): -6.1%
SMILES: CN1CCN(C(=O)C(C)(C)c2ccc(C(=O)Nc3cn4cc(-c5cc(C(C)(C)C)cc(C(C)(C)C)c5)ccc4n3)cc2)CC1 [T3-CLK-N]

inhibition [4, 15]: 74.2%
inhibition ([4]; Compound concentration 1.11 uM): 97.5%
inhibition ([5]; Compound concentration 0.1 uM): 5.45%
inhibition ([5]; Compound concentration 1.0 uM): 2.56%
inhibition [6]: -7.39%
inhibition [7]: -8.24%
inhibition [8, 15]: 38.3%
inhibition ([8]; Compound concentration 1.11 uM): 88.7%
inhibition ([9]; Compound concentration 0.1 uM): 4.51%
inhibition ([9]; Compound concentration 1.0 uM): 8.55%
inhibition ([10]; Compound concentration 0.1 uM): 4.38%
inhibition ([10]; Compound concentration 1.0 uM): 3.75%
inhibition ([11]; Compound concentration 0.1 uM): 7.14%
inhibition ([11]; Compound concentration 1.0 uM): 5.32%
inhibition ([12]; Compound concentration 0.1 uM): 4.26%
inhibition ([12]; Compound concentration 1.0 uM): 9.19%
inhibition ([13]; Compound concentration 0.1 uM): -0.71%
inhibition ([13]; Compound concentration 1.0 uM): 2.69%
inhibition [14, 15]: -8.38%
inhibition ([14]; Compound concentration 1.11 uM): -2.87%
SMILES: CN1CCN(C(=O)C(C)(C)c2ccc(C(=O)Nc3cn4cc(-c5ccncc5)ccc4n3)cc2)CC1 [T3-CLK]
